The text below walks through data of PMC10167629, “Computer-aided design of a cyclic di-AMP synthesizing enzyme CdaA inhibitor” (microLife, 2023).

The target in assay [1] is T1, Lm CdaA (∆100CdaA) (Listeria monocytogenes, UniProt Q8Y5E4).
T1 construct: gene dacA; DAC domain, lacks transmembrane domain and linker (first 100 residues deleted); N-terminal GST tag cut with PreScission protease; plasmid pGEXpBP33, E. coli BL21(DE3); residues to at least 268 mentioned (96-104 and 256-268 disordered); non-catalytic back-to-back dimer in crystal
T1 sequence (Q8Y5E4 101-273): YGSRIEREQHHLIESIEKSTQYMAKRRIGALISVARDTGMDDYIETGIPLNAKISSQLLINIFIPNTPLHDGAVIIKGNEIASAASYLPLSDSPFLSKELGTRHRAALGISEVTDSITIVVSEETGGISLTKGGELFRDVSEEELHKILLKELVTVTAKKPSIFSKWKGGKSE
Description: crystal structure by soaking. The class given is binding. As to conditions: active site, chain A.

Assay [2] concerns the target T1, Lm CdaA (∆100CdaA). The experiment in a line: ITC, […] binding model.

As to `Nc1ncnc2c1ncn2[C@@H]1O[C@H](CO)[C@@H](O)[C@H]1O` [adenosine], the “crystal structure by soaking” value in assay [1] is “we have determined crystal structures of CdaA complexes with adenine (Fig. 3B), adenosine (Fig. 3C)”.

Usually Kd stands for the equilibrium constant for the complex coming apart. The low end stands for higher affinity, the high end for lower affinity. `CC(=O)Nc1nc(C)c(-c2csc(N)n2)s1` [compound 7] had a dissociation constant (Kd) in assay [2] of 16.3 ± 2.5 µM.
